Assay results: patent publication US20140357512A1, “HISTONE DEACETYLASE (HDAC) BIOMARKERS IN MULTIPLE MYELOMA” (priority 2013, published 2014)

Test system: human myeloma cell line MM.1S
Test: Biological pathway analysis of SILAC biomarker peptides against pathway database (broadinstitute gsea)
Description: Once biomarker peptides are identified for a specific drug by the SILAC method, the biomarker peptides may be compared to peptides/proteins in a biological pathway database in order to identify major biological pathways or functions implicated by the drug's action. A preferred pathway analysis website is at www dot broadinstitute dot org/gsea/index dot jsp.
This example describes the biological pathway analysis that was performed on each of Compound A, Compound B, and Tubastatin A.
Once biomarker peptides were identified for a specific drug (either Compound A, Compound B, or Tubastatin A) by the SILAC method in Example 1, the biomarker peptides were compared to peptides/proteins in the biological pathway database at www dot broadinstitute dot org/gsea/index dot jsp in order to identify major biological pathways or functions implicated by the drug's action.

CN1CCc2c(c3ccccc3n2Cc2ccc(C(=O)NO)cc2)C1 [Tubastatin A, reference compound]
Observed: number of genes in pathway REACTOME_PACKAGING_OF_TELOMERE_ENDS (Pathway_size 48): 26 | Ratio observed/pathway size, REACTOME_PACKAGING_OF_TELOMERE_ENDS (Pathway_size 48): 0.5417 | Observed: number of genes in pathway REACTOME_RNA_POL_I_PROMOTER_OPENING (Pathway_size 61): 40 | Ratio observed/pathway size, REACTOME_RNA_POL_I_PROMOTER_OPENING (Pathway_size 61): 0.6557 | Observed: number of genes in pathway REACTOME_DEPOSITION_OF_NEW_CENPA_CONTAINING_NUCLEOSOMES_AT_THE_CENTROMERE (Pathway_size 64): 27 | Ratio observed/pathway size, REACTOME_DEPOSITION_OF_NEW_CENPA_CONTAINING_NUCLEOSOMES_AT_THE_CENTROMERE (Pathway_size 64): 0.4219 | Observed: number of genes in pathway GCM_TPT1 (Pathway_size 70): 28 | Ratio observed/pathway size, GCM_TPT1 (Pathway_size 70): 0.4 | Observed: number of genes in pathway REACTOME_MEIOTIC_SYNAPSIS (Pathway_size 71): 27 | Ratio observed/pathway size, REACTOME_MEIOTIC_SYNAPSIS (Pathway_size 71): 0.3803 | Observed: number of genes in pathway REACTOME_TELOMERE_MAINTENANCE (Pathway_size 75): 26 | Ratio observed/pathway size, REACTOME_TELOMERE_MAINTENANCE (Pathway_size 75): 0.3467 | Observed: number of genes in pathway STRUCTURAL_CONSTITUENT_OF_RIBOSOME (Pathway_size 80): 28 | Ratio observed/pathway size, STRUCTURAL_CONSTITUENT_OF_RIBOSOME (Pathway_size 80): 0.35 | Observed: number of genes in pathway MIPS_RIBOSOME_CYTOPLASMIC (Pathway_size 81): 32 | Observed: number of genes in pathway REACTOME_AMYLOIDS (Pathway_size 81): 40 | Ratio observed/pathway size, MIPS_RIBOSOME_CYTOPLASMIC (Pathway_size 81): 0.3951 | Ratio observed/pathway size, REACTOME_AMYLOIDS (Pathway_size 81): 0.4938 | Observed: number of genes in pathway REACTOME_MEIOTIC_RECOMBINATION (Pathway_size 84): 41 | Ratio observed/pathway size, REACTOME_MEIOTIC_RECOMBINATION (Pathway_size 84): 0.4881 | Observed: number of genes in pathway REACTOME_RNA_POL_I_TRANSCRIPTION (Pathway_size 86): 40 | Ratio observed/pathway size, REACTOME_RNA_POL_I_TRANSCRIPTION (Pathway_size 86): 0.4651 | Observed: number of genes in pathway KEGG_RIBOSOME (Pathway_size 88): 33 | Ratio observed/pathway size, KEGG_RIBOSOME (Pathway_size 88): 0.375 | Observed: number of genes in pathway MORF_TPT1 (Pathway_size 102): 32 | Ratio observed/pathway size, MORF_TPT1 (Pathway_size 102): 0.3137 | Observed: number of genes in pathway MIPS_NOP56P_ASSOCIATED_PRE_RRNA_COMPLEX (Pathway_size 104): 33 | Ratio observed/pathway size, MIPS_NOP56P_ASSOCIATED_PRE_RRNA_COMPLEX (Pathway_size 104): 0.3173 | Observed: number of genes in pathway REACTOME_MEIOSIS (Pathway_size 112): 42 | Ratio observed/pathway size, REACTOME_MEIOSIS (Pathway_size 112): 0.375 | Observed: number of genes in pathway GCM_NPM1 (Pathway_size 116): 36 | Ratio observed/pathway size, GCM_NPM1 (Pathway_size 116): 0.3103 | Observed: number of genes in pathway GNF2_DAP3 (Pathway_size 119): 30 | Observed: number of genes in pathway REACTOME_RNA_POL_I_RNA_POL_III_AND_MITOCHONDRIAL_TRANSCRIPTION (Pathway_size 119): 40 | Ratio observed/pathway size, GNF2_DAP3 (Pathway_size 119): 0.2521 | Ratio observed/pathway size, REACTOME_RNA_POL_I_RNA_POL_III_AND_MITOCHONDRIAL_TRANSCRIPTION (Pathway_size 119): 0.3361 | Observed: number of genes in pathway GNF2_EIF3S6 (Pathway_size 121): 33 | Ratio observed/pathway size, GNF2_EIF3S6 (Pathway_size 121): 0.2727 | Observed: number of genes in pathway GCM_ACTG1 (Pathway_size 124): 34 | Ratio observed/pathway size, GCM_ACTG1 (Pathway_size 124): 0.2742 | Observed: number of genes in pathway MORF_ACTG1 (Pathway_size 138): 39 | Ratio observed/pathway size, MORF_ACTG1 (Pathway_size 138): 0.2826 | Observed: number of genes in pathway KEGG_SYSTEMIC_LUPUS_ERYTHEMATOSUS (Pathway_size 139): 47 | Ratio observed/pathway size, KEGG_SYSTEMIC_LUPUS_ERYTHEMATOSUS (Pathway_size 139): 0.3381 | Observed: number of genes in pathway REACTOME_PEPTIDE_CHAIN_ELONGATION (Pathway_size 145): 32 | Ratio observed/pathway size, REACTOME_PEPTIDE_CHAIN_ELONGATION (Pathway_size 145): 0.2207 | Observed: number of genes in pathway MORF_NME2 (Pathway_size 154): 39 | Ratio observed/pathway size, MORF_NME2 (Pathway_size 154): 0.2532 | Observed: number of genes in pathway REACTOME_INFLUENZA_VIRAL_RNA_TRANSCRIPTION_AND_REPLICATION (Pathway_size 161): 33 | Ratio observed/pathway size, REACTOME_INFLUENZA_VIRAL_RNA_TRANSCRIPTION_AND_REPLICATION (Pathway_size 161): 0.205 | Observed: number of genes in pathway MORF_NPM1 (Pathway_size 162): 43 | Ratio observed/pathway size, MORF_NPM1 (Pathway_size 162): 0.2654 | Observed: number of genes in pathway REACTOME_3_UTR_MEDIATED_TRANSLATIONAL_REGULATION (Pathway_size 166): 32 | Ratio observed/pathway size, REACTOME_3_UTR_MEDIATED_TRANSLATIONAL_REGULATION (Pathway_size 166): 0.1928 | Observed: number of genes in pathway REACTOME_NONSENSE_MEDIATED_DECAY_ENHANCED_BY_THE_EXON_JUNCTION_COMPLEX (Pathway_size 167): 32 | Ratio observed/pathway size, REACTOME_NONSENSE_MEDIATED_DECAY_ENHANCED_BY_THE_EXON_JUNCTION_COMPLEX (Pathway_size 167): 0.1916 | Observed: number of genes in pathway REACTOME_SRP_DEPENDENT_COTRANSLATIONAL_PROTEIN_TARGETING_TO_MEMBRANE (Pathway_size 170): 39 | Ratio observed/pathway size, REACTOME_SRP_DEPENDENT_COTRANSLATIONAL_PROTEIN_TARGETING_TO_MEMBRANE (Pathway_size 170): 0.2294 | Observed: number of genes in pathway REACTOME_INFLUENZA_LIFE_CYCLE (Pathway_size 195): 37 | Ratio observed/pathway size, REACTOME_INFLUENZA_LIFE_CYCLE (Pathway_size 195): 0.1897 | Observed: number of genes in pathway MORF_ANP32B (Pathway_size 197): 38 | Ratio observed/pathway size, MORF_ANP32B (Pathway_size 197): 0.1929 | Observed: number of genes in pathway REACTOME_TRANSCRIPTION (Pathway_size 207): 45 | Ratio observed/pathway size, REACTOME_TRANSCRIPTION (Pathway_size 207): 0.2174 | Observed: number of genes in pathway REACTOME_TRANSLATION (Pathway_size 211): 39 | Ratio observed/pathway size, REACTOME_TRANSLATION (Pathway_size 211): 0.1848 | Observed: number of genes in pathway MORF_UBE2I (Pathway_size 238): 43 | Ratio observed/pathway size, MORF_UBE2I (Pathway_size 238): 0.1807 | Observed: number of genes in pathway MODULE_32 (Pathway_size 241): 36 | Ratio observed/pathway size, MODULE_32 (Pathway_size 241): 0.1494 | Observed: number of genes in pathway MORF_HDAC1 (Pathway_size 254): 37 | Ratio observed/pathway size, MORF_HDAC1 (Pathway_size 254): 0.1457 | Observed: number of genes in pathway MORF_DEK (Pathway_size 262): 39 | Ratio observed/pathway size, MORF_DEK (Pathway_size 262): 0.1489 | Observed: number of genes in pathway MORF_RAN (Pathway_size 268): 46 | Ratio observed/pathway size, MORF_RAN (Pathway_size 268): 0.1716 | Observed: number of genes in pathway MODULE_151 (Pathway_size 318): 49 | Ratio observed/pathway size, MODULE_151 (Pathway_size 318): 0.1541 | Observed: number of genes in pathway MODULE_83 (Pathway_size 320): 50 | Ratio observed/pathway size, MODULE_83 (Pathway_size 320): 0.1562 | Observed: number of genes in pathway MODULE_114 (Pathway_size 338): 49 | Ratio observed/pathway size, MODULE_114 (Pathway_size 338): 0.145 | Observed: number of genes in pathway HSIAO_HOUSEKEEPING_GENES (Pathway_size 389): 68 | Ratio observed/pathway size, HSIAO_HOUSEKEEPING_GENES (Pathway_size 389): 0.1748 | Observed: number of genes in pathway MOOTHA_HUMAN_MITODB_6_2002 (Pathway_size 429): 46 | Ratio observed/pathway size, MOOTHA_HUMAN_MITODB_6_2002 (Pathway_size 429): 0.1072 | Observed: number of genes in pathway REACTOME_METABOLISM_OF_PROTEINS (Pathway_size 496): 56 | Ratio observed/pathway size, REACTOME_METABOLISM_OF_PROTEINS (Pathway_size 496): 0.1129 | Observed: number of genes in pathway MARTENS_TRETINOIN_RESPONSE_DN (Pathway_size 841): 63 | Ratio observed/pathway size, MARTENS_TRETINOIN_RESPONSE_DN (Pathway_size 841): 0.07491 | Observed: number of genes in pathway GRADE_COLON_CANCER_UP (Pathway_size 870): 62 | Ratio observed/pathway size, GRADE_COLON_CANCER_UP (Pathway_size 870): 0.07126 | Observed: number of genes in pathway DANG_BOUND_BY_MYC (Pathway_size 1102): 68 | Ratio observed/pathway size, DANG_BOUND_BY_MYC (Pathway_size 1102): 0.06171 | Observed: number of genes in pathway CYTOPLASMIC_PART (Pathway_size 1383): 67 | Ratio observed/pathway size, CYTOPLASMIC_PART (Pathway_size 1383): 0.04845 | Observed: number of genes in pathway PUJANA_BRCA1_PCC_NETWORK (Pathway_size 1651): 84 | Ratio observed/pathway size, PUJANA_BRCA1_PCC_NETWORK (Pathway_size 1651): 0.05088 | Observed: number of genes in pathway CYTOPLASM (Pathway_size 2130): 83 | Ratio observed/pathway size, CYTOPLASM (Pathway_size 2130): 0.03897
